Data: patent publication US10005756B2, “Pyrrolidinone derivatives as MetAP-2 inhibitors” (Merck Patent GmbH, priority 2014, dated 2018)

tested on: human umbilical vein endothelial cells (HUVEC); assay: HUVEC proliferation quantified by BrdU incorporation; type: cell-based; conditions: HUVEC proliferation, BrdU incorporation, read-out: IC50 HUVEC
Experimental: Determination of the Proliferation Inhibition by Inhibitors of Methionine Aminopeptidase 2 in the BrdU Proliferation Test (Cellular Assay)
After detachment of the cells by means of trypsin/EDTA, the number of living cells is determined, and the cells are sown in a density of 1000 cells per cavity in a total volume of 175 μl (cavities are coated in advance either with supplemented culture medium for 1-2 hours at 37° C. or with 1.5% gelatine for 0.5-2 hours at 37° C.). After cultivation for 24 hours, the test substances are added in various concentrations (for example final concentrations 30 μM to 0.03 nM in 10-fold dilution steps) and a volume of 25 μl. The DMSO concentration is kept constant at 0.3%. […] To this end, the cells are treated with a fixative for 30 min at room temperature and subsequently incubated with a peroxidase-labelled anti-BrdU antibody (diluted 1:100 in antibody dilution buffer) for 60 min at room temperature. […] The colour development is stopped after 15 min by addition of 25 μl of a 1M sulfuric acid solution. […] The controls used are cavities containing DMSO-treated cells (100% control) or empty cavities (blank value).
HUVEC Proliferation Quantified by BrdU Incorporation
HUVEC Means Human Umbilical Vein Endothelial Cells
HUVEC proliferation is measured after a 5 day incubation period using incorporation of BrdU as a measure of cell cycle activity. Cells are incubated in the presence or absence of test substances. During the last 18 to 24 hours of the incubation period BrdU is added to the medium. BrdU is incorporated into the DNA as the cells progress through S-phase (DNA synthesis) of the cell cycle. The cells are fixed and the amount of BrdU incorporated can be quantified using a commercial ELISA for detection of BrdU.
HUVEC are routinely cultured in EGM MV medium and used between passages 3 and 8.
All substances are run in triplicate.
Reference compounds are run in every assay.
Data is analyzed using the Assay Explorer program. Briefly, the blank is subtracted from all values, the triplicates are averaged and normalized to the untreated. EC50 is determined from a 4-parameter general sigmoidal curve (Hill fit y=(s0−slnf)/(1+(x/AC50)^nHill)+slnf) in Assay Explorer, Symyx). The processed data (EC50 or % Effect if no EC50 if reached, Efficacy) is uploaded directly from Assay Explorer to the MSRDB.

Compound | IC50
O=C(NCc1cc(F)cc(Cl)c1)C1=CCN(c2ccccc2)C1=O [Compound A12] | 3300 nM

same assay, conditions: HUVEC, read-out: IC50 HUVEC

Compound | IC50
CC(C)(C)OC(=O)C(CCC(N)=O)NC(=O)c1cc2cc(N3CC[C@](O)(C(=O)NCc4cc(F)cc(Cl)c4)C3=O)ccc2[nH]1 (stereo in doubt) [Compound A27] | 480 nM
NC(=O)c1cc2cc(N3CC[C@@](O)(C(=O)NCc4cc(F)cc(F)c4)C3=O)ccc2[nH]1 (stereo in doubt) [Compound A86] | 71 nM
O=C(NCc1cc(F)cc(Cl)c1)[C@@]1(O)CCN(c2cccc(S(=O)(=O)N3CCNCC3)c2)C1=O [Compound A1] | 1000 nM
C[C@H](c1ccccc1)N1CC[C@](O)(C(=O)NCc2cc(F)cc(Cl)c2)C1=O [Compound A2] | 7000 nM
C[C@@H](c1ccccc1)N1CC[C@](O)(C(=O)NCc2cc(F)cc(Cl)c2)C1=O [Compound A3] | 730 nM
O=C(NCc1cc(F)cc(Cl)c1)[C@@]1(O)CCN(c2cnc(Cl)c(F)c2)C1=O [Compound A4] | 11000 nM
CCNS(=O)(=O)c1ccc(N2CC[C@](O)(C(=O)NCc3cc(F)cc(Cl)c3)C2=O)cc1 [Compound A5] | 190 nM
N/C(=N\O)c1cc2cc(N3CC[C@](O)(C(=O)NCc4cc(F)cc(Cl)c4)C3=O)ccc2[nH]1 [Compound A6] | 30 nM
O=C(NCc1cc(F)cc(Cl)c1)C1(O)CCN(c2cccc(-c3nnn[nH]3)c2)C1=O (stereo not drawn) [Compound A7] | 30000 nM
Cc1nnc(-c2cc3cc(N4CC[C@](O)(C(=O)NCc5cc(F)cc(Cl)c5)C4=O)ccc3[nH]2)o1 [Compound A8] | 17 nM
O=C(NCc1cc(F)cc(Cl)c1)[C@@]1(O)CCN(c2ccc3[nH]c(-c4nnco4)cc3c2)C1=O [Compound A9] | 14 nM
O=C(NCc1cc(F)cc(Cl)c1)[C@@]1(O)CCN(c2ccc3[nH]c(-c4nnn[nH]4)cc3c2)C1=O [Compound A10] | 3800 nM
Cc1nc(-c2cc3cc(N4CC[C@](O)(C(=O)NCc5cc(F)cc(Cl)c5)C4=O)ccc3[nH]2)no1 [Compound A11] | 24 nM
O=C(NCc1cc(F)cc(Cl)c1)C1(O)C(=O)N(c2ccccc2)CC1O (stereo not drawn) [Compound A13] | 2500 nM
O=C(NCc1cc(F)cc(Cl)c1)C1(O)CCN(c2ccn[nH]2)C1=O (stereo not drawn) [Compound A15] | 5200 nM
O=C(NCc1cc(F)cc(Cl)c1)C1(O)CCN(c2ccc3oc(=O)ccc3c2)C1=O (stereo not drawn) [Compound A16] | 3500 nM
CC(=O)Nc1cc2cc(N3CCC(O)(C(=O)NCc4cc(F)cc(Cl)c4)C3=O)ccc2oc1=O (stereo not drawn) [Compound A17] | 1100 nM
O=C(NCc1cc(F)cc(Cl)c1)C1(O)CCN(c2cccc(O)c2)C1=O (stereo not drawn) [Compound A18] | 180 nM
Nc1ccc(N2CCC(O)(C(=O)NCc3cc(F)cc(Cl)c3)C2=O)cc1/C=C/C(=O)O (stereo not drawn) [Compound A19] | 180 nM
O=C(NCc1cc(F)cc(Cl)c1)C1(O)CCN(C(CO)c2ccccc2)C1=O (stereo not drawn) [Compound A21] | 4200 nM
O=C(NCc1cc(F)cc(Cl)c1)C1(O)CCN(c2ccc3[nH]c(Br)cc3c2)C1=O (stereo not drawn) [Compound A22] | 130 nM
O=C(NCc1cc(F)cc(Cl)c1)C1(O)CCN(c2ccc3[nH]c(-c4ccc(Cl)cc4)nc3c2)C1=O (stereo not drawn) [Compound A25] | 1300 nM
O=C(NCc1cc(F)cc(Cl)c1)[C@@]1(O)CCN(c2cncnc2)C1=O [Compound A26] | 11000 nM
O=C(NCc1cc(F)cc(Cl)c1)C1(O)CCN(c2ccc3c(c2)CS(=O)(=O)C3)C1=O (stereo not drawn) [Compound A28] | 530 nM
O=C(NCc1cc(F)cc(Cl)c1)C1(O)CCN(c2ccc(C(O)(C(F)(F)F)C(F)(F)F)cc2)C1=O (stereo not drawn) [Compound A29] | 1500 nM

Compound | IC50
O=C(NCc1cc(F)cc(Cl)c1)[C@@]1(O)CCN(c2cnc3[nH]cc(Br)c3c2)C1=O [Compound A33] | 5.4 nM
O=C(NCc1cc(F)cc(Cl)c1)[C@@]1(O)CCN(c2cnc3[nH]cc(I)c3c2)C1=O [Compound A34] | 6.7 nM
NCCCCNC(=O)c1cc2cc(N3CC[C@](O)(C(=O)NCc4cc(F)cc(Cl)c4)C3=O)ccc2[nH]1 [Compound A35] | 51 nM
NC(=O)CC[C@H](NC(=O)c1cc2cc(N3CC[C@](O)(C(=O)NCc4cc(F)cc(Cl)c4)C3=O)ccc2[nH]1)C(=O)O [Compound A39] | 3100 nM
NCCCNC(=O)c1cc2cc(N3CC[C@](O)(C(=O)NCc4cc(F)cc(Cl)c4)C3=O)ccc2[nH]1 [Compound A40] | 200 nM
O=C(NCc1cc(F)cc(Cl)c1)[C@@]1(O)CCN(c2ccc3c(c2)COB3O)C1=O [Compound A41] | 260 nM
O=C(NCc1cc(F)cc(Cl)c1)C1(O)CCN(c2ccc3c(c2)CS(=O)(=O)N3)C1=O (stereo not drawn) [Compound A42] | 1300 nM
COc1ccc(CN2c3ccc(N4CCC(O)(C(=O)NCc5cc(F)cc(Cl)c5)C4=O)cc3CS2(=O)=O)cc1 (stereo not drawn) [Compound A43] | 820 nM
CC(C)C(NC(=O)CN1CCC(O)(C(=O)NCc2cc(F)cc(Cl)c2)C1=O)C(=O)N(C)C (stereo not drawn) [Compound A46] | 45 nM
O=C(NCc1cc(F)cc(Cl)c1)C1(O)CCN(c2ccc3c(c2)CC(C2CC2)N3)C1=O (stereo not drawn) [Compound A47] | 40 nM
NCCCNC(=O)[C@H](CCC(N)=O)NC(=O)c1cc2cc(N3CC[C@](O)(C(=O)NCc4cc(F)cc(Cl)c4)C3=O)ccc2[nH]1 [Compound A50] | 3500 nM
CN(C)C(=O)CNC(=O)[C@H](CCC(N)=O)NC(=O)c1cc2cc(N3CC[C@](O)(C(=O)NCc4cc(F)cc(Cl)c4)C3=O)ccc2[nH]1 [Compound A51] | 8100 nM
NC(=O)CC[C@H](NC(=O)c1cc2cc(N3CC[C@](O)(C(=O)NCc4cc(F)cc(Cl)c4)C3=O)ccc2[nH]1)C(=O)N[C@@H](Cc1ccccc1)C(N)=O [Compound A52] | 4400 nM
O=C(NCc1cc(F)cc(Cl)c1)[C@@]1(O)CCN(c2cnc3[nH]cc(F)c3c2)C1=O [Compound A53] | 39 nM
O=C(NCc1cc(F)cc(Cl)c1)C1(O)CCN(c2ccc(C(F)F)cc2)C1=O (stereo not drawn) [Compound A60] | 1800 nM
O=C(NCc1cc(F)cc(Cl)c1)[C@@]1(O)CCN(c2cnc3[nH]c(Cl)c(Cl)c3c2)C1=O [Compound A62] | 180 nM
CS(=N)(=O)c1ccc(N2CCC(O)(C(=O)NCc3cc(F)cc(Cl)c3)C2=O)cc1 (stereo not drawn) [Compound A64, 3-hydroxy-1-(4-methanesulfoximinoyl-phenyl)-2-oxo-pyrrolidine-3-carboxylic acid 3-chloro-5-fluoro-benzylamide] | 6100 nM
O=C(NCc1cc(F)cc(Cl)c1)[C@@]1(O)CCN(c2ccc(OC(F)(F)F)cc2)C1=O [Compound A65] | 1500 nM
O=C1Cc2cc(N3CC[C@](O)(C(=O)NCc4cc(F)cc(F)c4)C3=O)ccc2N1 [Compound A66] | 76 nM
O=C(NCc1cc(F)cc(Cl)c1)[C@@]1(O)CCN(c2cccc(OC(F)(F)F)c2)C1=O [Compound A67] | 290 nM
O=CNCCCCNC(=O)c1cc2cc(N3CC[C@](O)(C(=O)NCc4cc(F)cc(Cl)c4)C3=O)ccc2[nH]1 [Compound A68] | 110 nM
C[S@@](=N)(=O)c1ccc(N2CC[C@](O)(C(=O)NCc3cc(F)cc(Cl)c3)C2=O)cc1 [Compound A69] | 300 nM
C[S@](=N)(=O)c1ccc(N2CC[C@](O)(C(=O)NCc3cc(F)cc(Cl)c3)C2=O)cc1 [Compound A70] | 700 nM
CS(=N)(=O)c1cccc(N2CCC(O)(C(=O)NCc3cc(F)cc(Cl)c3)C2=O)c1 (stereo not drawn) [Compound A71] | 1400 nM
O=C(NCc1cc(F)cc(Cl)c1)C1(O)CCN(c2ccc3c(c2)CCOB3O)C1=O (stereo not drawn) [Compound A74] | 14 nM
